# Where two headings read alike, the source gives them in different places.
# Assays:
# [1] = Optical properties (absorbance, fluorescence, quantum yield) in DMSO; assay type: physicochemical
# Method: MarvinSketch (ver. 23.11) and InstantJChem (ver. 23.17) calculator plug-ins (ChemAxon, Budapest, Hungary) were used to calculate in silico physicochemical property, such as molecular weight (MW), the partition and distribution coefficient (LogP and LogD at pH 7.4), surface molecular charge, hydrophobicity, the hydrogen bond acceptors/donors (HBA/HBD), the acid dissociation constant (pKa), the topological polar surface area (TPSA), and BBB score. The BBB score is determined by 5 key physicochemical descriptors, including the number of aromatic rings, the number of heavy atoms, MWHBN (a parameter derived from MW and the number of HBA/HBD), TPSA, and pKa. The final score is computed using stepwise methods for descriptors with discrete values and polynomial weight functions for descriptors with continuous ranges (ChemAxon). The absorbance and fluorescence emission spectra of ALS04 and ALS05 at varying concentrations were measured in dimethyl sulfoxide (DMSO) using HR2000 absorbance spectrometers (200 to 1,100 nm) and USB2000FL fluorescence spectrometers (350 to 1,000 nm) from Ocean Optics (Dunedin, FL). Fluorescence emission spectra were collected under NIR excitation using a 760-nm laser pointer (Opcom Inc., Xiamen, China). […] The fluorescence emission spectrum was integrated and plotted as a function of absorbance at 755 nm, and a linear fit was applied to determine the slope between fluorescence intensity and absorbance. […] A small, accurately weighed amount of each fluorophore was added to a minimal volume of solvents, and the saturated solution was then vortexed and sonicated for 5 min to ensure complete dissolution of the solids. Following this, the solution was centrifuged at 1,500g for 10 min, and the absorbance of the supernatant was measured. The solubility (g/l) was calculated by multiplying the maximum absorbance-derived concentration by the MW of each fluorophore.
# [2] = Solubility in 5% BSA in saline; assay type: physicochemical; details: 5% bovine serum albumin in saline, plasma or biological fluid, thermodynamic from solid
# Method: MarvinSketch (ver. 23.11) and InstantJChem (ver. 23.17) calculator plug-ins (ChemAxon, Budapest, Hungary) were used to calculate in silico physicochemical property, such as molecular weight (MW), the partition and distribution coefficient (LogP and LogD at pH 7.4), surface molecular charge, hydrophobicity, the hydrogen bond acceptors/donors (HBA/HBD), the acid dissociation constant (pKa), the topological polar surface area (TPSA), and BBB score. The BBB score is determined by 5 key physicochemical descriptors, including the number of aromatic rings, the number of heavy atoms, MWHBN (a parameter derived from MW and the number of HBA/HBD), TPSA, and pKa. […] The absorbance and fluorescence emission spectra of ALS04 and ALS05 at varying concentrations were measured in dimethyl sulfoxide (DMSO) using HR2000 absorbance spectrometers (200 to 1,100 nm) and USB2000FL fluorescence spectrometers (350 to 1,000 nm) from Ocean Optics (Dunedin, FL). Fluorescence emission spectra were collected under NIR excitation using a 760-nm laser pointer (Opcom Inc., Xiamen, China). […] The fluorescence emission spectrum was integrated and plotted as a function of absorbance at 755 nm, and a linear fit was applied to determine the slope between fluorescence intensity and absorbance. […] Following this, the solution was centrifuged at 1,500g for 10 min, and the absorbance of the supernatant was measured. […]
# [3] = Photostability under continuous 760-nm irradiation in 5% BSA; assay type: physicochemical; details: 5% BSA solution, NIR imaging conditions
# Method: To investigate the photostability of ALS04 and ALS05, 10 mM stock solutions were diluted to obtain working solutions, with concentrations of 100, 50, 20, and 10 μM in 5% BSA solution, which were then dispensed into a black 96-well plate. Subsequently, the 200-μl working solutions were exposed to continuous irradiation using a 760-nm laser diode at 4 mW/cm^2, with white light (400 to 650 nm) at 40,000 lux, and imaged for 240 min. The fluorescence (%) was calculated by analyzing the measured values with ImageJ v1.52 (National Institutes of Health, Bethesda, MD, USA) using images captured at each time point. The data, presented as mean ± SD, assessed stability by measuring regions of interest (ROIs) and comparing fluorescence intensity against the initial fluorescence signal.
# [4] = system: SH-SY5Y cells and fibroblast NIH3T3 cells; assay: Cytotoxicity, Cell Counting Kit-8 (CCK-8); assay type: cell-based; details: Homo sapiens, 0 to 20 μM, 24 h, read-out: IC50 (cell viability)
# Method: Cell viability was assessed using Cell Counting Kit-8 (CCK-8) from Dojindo Molecular Technologies Inc. (Kumamoto, Japan). Briefly, SH-SY5Y and NIH3T3 cells were seeded into 96-well plates at a density of 2,500 cells per well. The cells were then treated with 0 to 20 μM of each fluorophore in growth medium for 24 h, and 10% CCK-8 solutions were added to each well. The plates were incubated at 37 °C for 4 h, and absorbance was measured at 450 nm using a SpectraMax M5 plate reader (Molecular Devices). Cell viability (%) = (Asample − Ab)/(Ac − Ab) × 100, where Asample, Ab, and Ac denote the absorbance reading of sample, blanks, and negative control wells, respectively.
# SH-SY5Y cells [5] = assay: Subcellular localization (colocalization with LysoTracker/MitoTracker); assay type: cell-based, human; details: 1 μM, 30 min, 37 °C
# Method: Human neuroblastoma SH-SY5Y cells [American Type Culture Collection (ATCC), Manassas, VA, USA] were cultured in a 1:1 mixture of Eagle’s minimum essential medium (EMEM; no. 30-2003, ATCC, Manassas, VA, USA) and F12K with 10% FBS and 1% penicillin-streptomycin solution. Cells were grown in a humidified atmosphere of 5% CO2 at 37 °C. The medium was replaced every 3 to 4 d, and cells were subcultured using trypsin–EDTA when 70% to 80% confluent. All media and supplements were purchased from Gibco (Gaithersburg, MD, USA). To optimize the imaging condition in this study, cells were incubated at 37 °C for 10 to 30 min in the presence of 0.1 to 1 μM of ALS04 and ALS05. After washing, the cells were imaged using BioTek Cytation 5. Fluorescence intensity was quantified using the threshold analysis method implemented in the ImageJ software. […] The cells were then washed and stained with NucBlue (2 drops/ml, Live ReadyProbes Reagent, Hoechst 33342, Invitrogen no. R37605), Lysotracker Yellow (5 μM, Invitrogen, no. L12491), and MitoTracker Deep Red (0.5 μM) (Invitrogen, no. M22426) to stain lysosome and mitochondria for 30 min as per the manufacturer’s instruction. […] Mander’s colocalization coefficients were then determined using the Costes method to choose threshold values on ImageJ [24].
# SH-SY5Y cells [6] = assay: Cellular uptake inhibition (BSP pretreatment or 4 °C); assay type: cell-based, human
# Method: SH-SY5Y cells were seeded on a 24-well plate (Corning Costar, no. 3524) and incubated at 37 °C for 48 h. To determine the role of membrane transporter in ALS04 retention, SH-SY5Y cells were pretreated with 250 μM sulfobromophthalein disodium (BSP; MedChemExpress, HY-D0217) at 37 °C for 20 min. Cells were then incubated with 1 μM of ALS04 and NucBlue (Invitrogen, Hoechst 33342, no. R37605) for 20 min at 37 °C. To evaluate the contribution of diffusion across the plasma membrane, cells were also incubated at 4 °C for 30 min, followed by incubation with 1 μM ALS04 at 4 °C for 20 min. After washing, the cells were imaged using BioTek Cytation 5. The fluorescence intensity of each cell was determined using ImageJ.
# SH-SY5Y cells [7] = assay: In vitro model of mitochondrial dysfunction (MPP+); assay type: cell-based, human; details: MPP+ 30, 125, 500 μM for 24 h, then 1 μM for 30 min
# Method: SH-SY5Y cells were seeded into 6-well plates (Corning Costar, no. 3516) at a density of 12,000 cells/well overnight. Cells were maintained at 37 °C in a humidified atmosphere of 5% CO2. To model mitochondrial dysfunction, undifferentiated and differentiated SH-SY5Y cells were incubated with 30, 125, and 500 μM 1-methyl-4-phenylpyridinium (MPP^+; Neurotoxin agent, Cayman, no. 16958) in the medium for 24 h. The control groups for undifferentiated and differentiated SH-SY5Y cells were treated with the same medium without MPP^+. The cells were then washed with 10% FBS/HBSS. After washing, cells were incubated with 1 μM of ALS04, MitoTracker Deep Red, and NucBlue for 30 min. The cells were imaged using BioTek Cytation 5. The fluorescent intensity of each cell was measured using ImageJ.
# CD-1 mice = assay: Biodistribution and clearance by NIR imaging; assay type: in vivo; details: 4 h post-injection
# Method: (§1) Six-week-old CD-1 mice were used to quantify the blood clearance rate and urinary excretion. Mice were injected with 25 nmol of ALS04 or ALS05 in saline containing 2.5% PEG400 (polyethylene glycol, molecular weight 400) and 5% BSA via intravenous injection under isoflurane anesthesia, and blood was collected in heparinized capillary tubes (Fisher Scientific, Pittsburgh, PA) by tail nick before injection and at 1, 3, 5, 10, 30, 60, 120, 180, and 240 min post-injection and then stored in an icebox to prevent clotting. The supernatants of collected blood were filled into capillary microtubes (Fisher Scientific) after centrifugation. Mice were euthanized with CO2 inhalation to image organs and collect urine from the bladder 4 h post-injection. Collected urine samples were also placed into capillary microtubes. The fluorescence intensities of the microtubes were measured by NIR imaging along with a set of standard ALS04 or ALS05 samples of known concentrations to analyze the pharmacokinetics. Pharmacokinetic analysis was performed using the 2-compartment model (or biexponential decay) to estimate distribution (t1/2α) and elimination (t1/2β) blood half-life, the volume of distribution, and clearance. Results were presented as a biexponential decay curve.
# For all real-time intraoperative imaging, a standardized imaging protocol was employed throughout the procedure using our custom-made imaging system, as previously described. Briefly, imaging utilized a 760-nm excitation source at a fluence rate of 4 mW/cm^2 combined with white light illumination (400 to 650 nm) at 40,000 lux. Camera exposure time was adjusted as needed to accurately capture the biodistribution of the fluorophores. Mice were maintained under general anesthesia using isoflurane or a combination of ketamine and xylazine (Webster Veterinary, Fort Devens, MA), and a midline incision was performed to expose the abdominal cavity. For imaging, a general field of view (FOV) of 5 cm in diameter was used to include the pancreas head, duodenum, liver, and kidneys, while a close-up FOV of 3.3 cm in diameter focused specifically on the pancreas head and duodenum. Following imaging, the mice were euthanized using CO₂ inhalation. Major organs, including the heart, lung, liver, pancreas, spleen, kidney, duodenum, intestine, and muscle, were excised and imaged ex vivo to evaluate fluorophore biodistribution and excretion pathways. The signal-to-background ratio (SBR) was calculated as follows: SBR=IROI/IAuto (2) where IROI denotes the average intensity of an ROI and IAuto represents the intensity of the muscle.
# [8] = Pharmacokinetics after single intravenous injection (2-compartment model); assay type: in vivo, CD-1 mice; details: 25 nmol i.v. in 2.5% PEG400 and 5% BSA in saline; for half-life: 25 nmol
# Method: as §1
# SOD1^G93A mice = assay: Biodistribution and targeting in ALS mouse model by NIR imaging; assay type: in vivo; details: 25 nmol retro-orbital, 4 h post-injection
# Method: For biodistribution and targeting studies, 12-week-old B6SJLF1/J (SOD1^G93A)1Gur male mice (25 to 30 g) were purchased from the Charles River Laboratories (Wilmington, MA). Animals were housed in an AAALAC-certified facility [Massachusetts General Hospital (MGH) #D16-00361], and all animal studies were performed in accordance with the Public Health Service Policy on Humane Care of Laboratory Animals and approved by the MGH Institutional Animal Care and Use Committee (IACUC) (#N2016000136). […] Each mouse was set on the wire lid of a typical housing cage, which was then turned on its side. It was timed how long it took after the test started for the mouse to stand with at least 2 limbs on the lid. The longest latency was noted after the animals were given 3 chances to stand for a maximum of 3 min per trial. The hemizygous SOD1^G93A mice were selected via genotyping polymerase chain reaction (PCR) assay. Mice were fed chlorophyll-free mouse chow (VWR International. Radnor, PA) at least 5 d prior to imaging to minimize autofluorescence. […]
# For all real-time intraoperative imaging, a standardized imaging protocol was employed throughout the procedure using our custom-made imaging system, as previously described. […] The signal-to-background ratio (SBR) was calculated as follows: SBR=IROI/IAuto (2) where IROI denotes the average intensity of an ROI and IAuto represents the intensity of the muscle.
# [9] = in DMSO, cited from earlier work
structure (smiles),measurement,setting,value
CN1/C(=C/C2=CC3=C/C(=C/c4sc5ccccc5[n+]4C)CCC3CC2)Sc2ccccc21 (stereo not shown) [ALS04],Ext. coeff. (molar absorptivity),[1],"169,600 M^-1cm^-1"
same,Max. Abs (excitation maximum),[1],751 nm
same,Max. Fl (emission maximum),[1],774 nm
same,QY (quantum yield),[1]; ICG as reference,6.0%
same,solubility at 5 min,[2],2530 µg/mL
same,Photostability (retained fluorescence) at 10 μM,"[3]; 10 μM, 240 min",60%
same,Photostability (retained fluorescence),[3]; up to 240 min,over 90%
same,IC50,[4],~1300 nM
same,Colocalization with lysosomes (colocalizing pixels),SH-SY5Y cells [5]; LysoTracker,8.5%
same,Colocalization with mitochondria (colocalizing pixels),SH-SY5Y cells [5]; MitoTracker,71%
same,Fluorescence signal (cellular uptake) after OATP inhibitor BSP,"SH-SY5Y cells [6]; 250 μM BSP pretreatment 20 min, then 1 μM for 20 min, ****P ≤ 0.0001",significant reduction
same,Cellular uptake at 4 °C,"SH-SY5Y cells [6]; cells at 4 °C 30 min, then 1 μM at 4 °C for 20 min",significantly reduced
same,Colocalization with mitochondria after MPP+ treatment,SH-SY5Y cells [7],dose-dependent reduction
same,SBR in duodenum or intestine and kidneys,CD-1 mice; 25 nmol,relatively high SBR
same,Signal in the bladder,CD-1 mice; 25 nmol,Little signal
same,Clearance route,"CD-1 mice; 25 nmol, intravital NIR imaging",both renal and hepatic clearance
same,Signals in brown adipose tissue (BAT) and pituitary gland (PG) compared to ALS05,"CD-1 mice; 25 nmol, ****P ≤ 0.0001 BAT, *P = 0.0324 PG",highly selective accumulated signals
same,Ex vivo signal in the gastrointestinal tract,CD-1 mice; resected organs,high signal
same,Ex vivo signal in the kidney compared to ALS05,CD-1 mice; resected organs,noticeably higher signal
same,AUC,[8],775.6 nmol·min/mL
same,half-life,"[8]; CD-1, mouse, plasma, iv, read-out: t1/2α (distribution blood half-life)",1.82 min
same,half-life,"[8]; CD-1, mouse, plasma, iv, read-out: t1/2β (elimination blood half-life)",79.9 min
same,clearance,"[8]; CD-1, mouse, plasma, iv, read-out: Cl (clearance)",0.067 mL/min
same,Vd,"[8]; CD-1, mouse, plasma, iv, read-out: Vd (volume of distribution)",0.00296 L
same,Uptake in BAT of SOD1^G93A mice compared to sham mice,"SOD1^G93A mice; 3-month-old asymptomatic mice, ****P ≤ 0.0001",significantly reduced
same,Signals in ventral temporal (VT) lobe and third ventricle (3v) of ALS mice compared to sham mice,SOD1^G93A mice; **P ≤ 0.01,significantly higher
"CC1(C)C(/C=C/C=C/C=C/C=C2\N(CCCCS(=O)(=O)O)c3ccc4ccccc4c3C2(C)C)=[N+](CCCCS(=O)(=O)[O-])c2ccc3ccccc3c21 [ICG, indocyanine green]",QY (quantum yield),[9]; reference standard,13%
same,Molar absorptivity,[9],"232,000 M^−1 cm^−1"

# — PMC11912748, “Image-Guided Monitoring of Mitochondria and Blood–Brain Barrier Dysfunction in Amyotrophic Lateral Sclerosis Mice” (Biomaterials Research, 2025)
